Results on two compounds are retold here after paper PMC10354055, “An optimized Nurr1 agonist provides disease-modifying effects in Parkinson’s disease models” (Nature Communications, 2023).

“And” between values parts separate entries of the source, which are not always exact repeats. Identical values can stand only once.

For experiment [1], the target named is T1, Nurr1-LBD (Mus musculus, UniProt Q06219).
T1 construct: transfected with pCMV-fNurr1, pGAL-Nurr1(LBD), pGAL-Nor1(LBD) or pGAL-Nur77(LBD) and reporter construct; expressed in transfected cells; host or cells: SK-N-BE(2)C (human neuroblastoma), N27-A (rat dopaminergic), MN9D (murine dopaminergic)
T1 sequence (Q06219 360-595 limits assumed): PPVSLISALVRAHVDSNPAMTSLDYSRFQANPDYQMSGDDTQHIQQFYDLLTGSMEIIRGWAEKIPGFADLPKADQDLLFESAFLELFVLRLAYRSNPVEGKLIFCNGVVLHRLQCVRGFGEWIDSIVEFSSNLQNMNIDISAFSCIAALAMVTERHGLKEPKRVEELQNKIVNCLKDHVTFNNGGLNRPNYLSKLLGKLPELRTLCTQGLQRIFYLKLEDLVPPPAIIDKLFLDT
Briefly: Luciferase reporter assay, Nurr1-LBD, N27-A cells. As to conditions: for EC50: Supplementary Fig. 1d,e. Format: cell-based. From the text:
(§1) Nurr1 transactivity was normalized to β-galactosidase activity.

Experiment [2] concerns Nurr1 mRNA. Briefly: Nurr1 mRNA level, qRT-PCR, MN9D cells. It is filed as cell-based, mouse. As to conditions: for Relative Nurr1 mRNA expression (fold of Cont.): Fig. S4f; for Relative Nurr1 mRNA expression (fold of +GFP Basal): Fig. S4h; for Nurr1 mRNA levels (in words): MPP+ or αSyn overexpression. Here is the method:
Total RNA was extracted using the GeneJET RNA Purification Kit (Thermo Fisher Scientific) and 100 ng of RNA was subjected to cDNA synthesis using Invitrogen Superscript cDNA Synthesis Kit (Invitrogen) according to the manufacturer’s protocol. qRT-PCR was performed using a CFX Connect Real-Time System (Bio-Rad) in a 20 μl volume mixture containing 2X SsoAdvanced Universal SYBR Green Supermix (Bio-Rad), 100 ng/μl of forward and reverse primers, and 1 μl of cDNA sample. Gene expression levels were quantified by the 2^∆∆CT method (Ct of target gene—Ct of glyceraldehyde-3-phosphate dehydrogenase (GAPDH). The following primers were used for qRT-PCR: TH forward: 5′-[…]-3′, reverse: 5′-[…]-3′; DAT forward: 5′-[…]-3′, reverse: 5′-[…]-3′; AADC forward: 5′-[…]-3′, reverse: 5′-[…]-3′; VMAT2 forward: 5′-[…]-3′, reverse: 5′-[…]-3′; c-Ret forward: 5′-[…]-3′, reverse: 5′-[…]-3′; TNFα forward: 5′-[…]-3′; reverse: 5′-[…]-3′; GAPDH, forward 5′-[…]-3′, reverse 5′-[…]-3′.
Lenti-GFP, -αSyn^WT, and -αSyn^A53T viruses were generated separately by co-transfecting each shuttle plasmid with lentivirus packaging plasmids into HEK293T cells using lipofectamine 2000 (Invitrogen). Briefly, 2 μg each FUW inducible shuttle plasmid, 2 μg FUW-rtTA, 2 μg psPax2 and 1.5 μg MD2.G were mixed and transfected into HEK293T cells. After 48 h, viral supernatants were collected and centrifuged at 1000g for 10 min, and subsequently filtered through a 0.45 μm filter. Lentiviruses were transduced into MN9D cells with 8 μg/ml of polybrene and the viral supernatant was removed and replaced with fresh medium a day after transduction.

Experiment [3] concerns HeLa cells. Briefly: Autophagolysosome (APL) formation assay, mRFP-GFP-LC3, HeLa cells. Format: cell-based. Conditions: CQ 20 µM, 4A7C-301 1 µM; for percentage of red dots among total LC3 dots: EBSS 6 h; for APL formation / autophagy (in words): EBSS, BafA1 10 nM. The procedure:
as §1
HeLa and N27-A cells were transfected with tandem mRFP-GFP-LC3 (Addgene) plasmid using Lipofectamine 2000 (Invitrogen) in 24-well plates. After 24 h, cells were incubated in starvation medium (Earle’s Balanced Salt Solution, EBSS; Lonza) containing bafilomycin A1 (BafA1, 10 nM), CQ (20 µM), or 4A7C-301 (1 µM) for 6 h and then fixed with 4% formaldehyde for fluorescence detection. Images were taken using a KEYENCE microscope and red (mRFP) LC3 dots and yellow (mRFP+GFP) LC3 dots were counted from three independent wells for each treatment group. 10 cells were randomly selected and counted from each well and a total of 30 cells were analyzed for each treatment group in both HeLa and N27-A cells.

For experiment [4], the system named is MPTP-induced male mice. Kind of experiment: Cylinder test, MPTP-induced PD model mice. It is filed as in vivo, mouse. As to conditions: for Number of rearing: Figure 4d, MPTP-induced mice, individual animal values. Here is the method: MPTP (Sigma-Aldrich) was intraperitoneally (i.p.) injected (30 mg/kg) for 5 days (Day 1-5). […] To test dyskinetic involuntary behavior, an L-DOPA injected group was included, which received 50 mg/kg of L-DOPA and 15 mg/kg of benserazide (Sigma-Aldrich) (i.p.) for 16 days (Day 1–16). All compounds were administered 6 h post-MPTP injection to avoid any effect of compounds on the MPTP metabolism in the brain. Motor and non-motor related behavior tests were performed on the following days as described in Fig. 4a in an assessor- and observer-blinded fashion. Pre-training and baseline setup for motor-related behaviors were performed 3 days prior to the injections. Mice were sacrificed and subjected to immunohistochemistry. Mice were housed at the Animal Care Facilities of McLean Hospital under a 12-h light/12-h dark cycle, ambient temperature and humidity. Animals were handled in accordance with McLean Hospital’s Institutional Animal Care and Use Committee (Protocol #: 2015N000002) and followed National Institutes of Health guidelines.
(§2) Mice were placed in a transparent plastic cylinder (15.5 cm high, 12.7 cm diameter) with a mirror behind it. Spontaneous activity was recorded and measured as counting the number of rearing events for 3 min session. A rear was considered only when the mouse touched the wall of the cylinder with its forelimb paws while standing on its hindlimbs (vertical movement) to count meaningful physiological movements.

Experiment [5] deals with AAV-αSyn-induced male mice. Kind of experiment: Cylinder test, AAV-αSyn-induced PD model mice. Format: in vivo, mouse. Conditions: αSynWT and αSynA53T mice; CQ 40, 4A7C-301 5 mg/kg/day i.p.
Description: (§3) Adeno-associated viruses (AAVs) expressing GFP only or αSyn (wild-type or A53T) were kindly provided by Dr. Yoon Seong Kim from the University of Central Florida. Recombinant AAV vectors were produced using modified pAAV-IRES-hrGFP (Agilent) to express wild-type and mutant human αSyn under control of the CMV promoter. Viral particles (AAV2) were produced at the University of Iowa Viral Vector Core according to standard operating procedures (https://medicine.uiowa.edu/vectorcore/). […] AAV vectors were delivered into the substantia nigra unilaterally by stereotaxic surgery.
as §2

The test system of experiment [6] is AAV-αSyn-induced male mice. Briefly: Dopamine ELISA in SN and STR, AAV-αSyn-injected mice. As to conditions: for DA levels in the SN and STR (in words): αSynWT-mice. It is filed as in vivo, mouse.
Description: as §3
For MPTP-induced mice, the left hemisphere of each group (n = 5) was used for analysis and compared to the vehicle-treated group (VEH). For AAV-αSyn-injected mouse model, the viral vector injected side (left hemisphere; ipsilateral) of each group (n = 3) was compared to the non-injected side (right hemisphere; contralateral).

The mark [7] stands for this setting: Supplementary Figure S10e, αSynA53T.
The mark [8] stands for this setting: Supplementary Figure S10e, αSynWT.
The mark [9] stands for this setting: Supplementary Figure S10f, αSynA53T.
The mark [10] stands for this setting: Supplementary Figure S10f, αSynWT.

Regarding `CCN1CCN(c2cc(N3CCN(CC)CC3)nc(NCCNc3ccnc4cc(Cl)ccc34)n2)CC1` [4A7C-301, N^1-(4,6-bis(4-ethylpiperazin-1-yl)pyrimidin-2-yl)-N^2-(7-chloroquinolin-4-yl)ethane-1,2-diamine], the “potency relative to CQ” value in experiment [1] was “approximately 50 times”. In experiment [1], this compound registered an EC50 of approximately 0.2 µM. The “Relative Nurr1 mRNA expression (fold of Cont.)” value in experiment [2] (w/ MPP+) is 0.4287 fold of Cont. and 0.414 fold of Cont. and 0.4438 fold of Cont; in experiment [2] (w/o MPP+), 1.004 fold of Cont. and 0.9452 fold of Cont. and 0.974 fold of Cont. Also, the “Relative Nurr1 mRNA expression (fold of +GFP Basal)” value is 1.067 fold of +GFP Basal and 0.9407 fold of +GFP Basal and 1.002 fold of +GFP Basal in experiment [2] (+ GFP); 0.5837 fold of +GFP Basal and 0.5113 fold of +GFP Basal and 0.5463 fold of +GFP Basal in experiment [2] (+ αSynA53T); 0.7154 fold of +GFP Basal and 0.8045 fold of +GFP Basal and 0.7587 fold of +GFP Basal in experiment [2] (+ αSynWT). In experiment [2], the “Nurr1 mRNA levels (in words)” value is “did not alter”. In addition, the “percentage of red dots among total LC3 dots” value in experiment [3] came to 63.9%. The “APL formation / autophagy (in words)” value in experiment [3] is “did not inhibit”. Besides, the “motor function, cylinder test (in words)” value in experiment [4] (CQ 40, 4A7C-301 5, L-DOPA 50 mg/kg/day, i.p., 16 days) is listed as “significantly rescued”. Besides, in experiment [4], the Number of rearing is 34 and 51 and 29 and 33 and 22 and 71 and 46. Besides, the “motor deficits, cylinder test (rearing) (in words)” value in experiment [5] is “improved motor deficits”. The “DA level (% of contralateral side)” value in experiment [6] (setting [7]) was 52.259 % of contralateral side and 51.869 % of contralateral side and 51.727 % of contralateral side; in experiment [6] (setting [8]), 78.777 % of contralateral side and 81.036 % of contralateral side and 79.879 % of contralateral side; in experiment [6] (setting [9]), 55.117 % of contralateral side and 54.305 % of contralateral side and 55.007 % of contralateral side; in experiment [6] (setting [10]), 77.063 % of contralateral side and 74.376 % of contralateral side and 74.108 % of contralateral side. In experiment [6] (αSynA53T-mice), the “DA levels (in words)” value is recorded as “increased”. Further, in experiment [6], the “DA levels in the SN and STR (in words)” value is “significantly increased”.

`CCN(CC)CCCC(C)Nc1ccnc2cc(Cl)ccc12` (stereo not drawn) [CQ, chloroquine] registered an EC50 in experiment [1] of approximately 10 µM. Also, the “Nurr1 mRNA levels (in words)” value in experiment [2] was “did not alter”. For the same compound, the “percentage of red dots among total LC3 dots” value in experiment [3] turned out to be 21.7%. In experiment [3], the “APL formation / autophagy (in words)” value was “significantly inhibited”. The Number of rearing in experiment [4] was 9 and 22 and 80 and 21 and 16 and 37 and 89 and 30 and 61. Further, the “motor deficits, cylinder test (rearing) (in words)” value in experiment [5] was “partial recovery”. Further, the “DA level (% of contralateral side)” value in experiment [6] (setting [7]) is 32.648 % of contralateral side and 32.350 % of contralateral side and 33.119 % of contralateral side; in experiment [6] (setting [8]), 73.112 % of contralateral side and 72.962 % of contralateral side and 71.012 % of contralateral side; in experiment [6] (setting [9]), 33.096 % of contralateral side and 33.011 % of contralateral side and 33.320 % of contralateral side; in experiment [6] (setting [10]), 70.155 % of contralateral side and 68.851 % of contralateral side and 68.899 % of contralateral side. The “DA levels in the SN and STR (in words)” value in experiment [6] is reported as “significantly increased”.
